Test results taken from PMC4486055 (Cancer chemotherapy and pharmacology, 2014).
“Also recorded” adds a separate entry of the source. Where two headings read alike, the source gives them in different places.

Key:
advanced solid tumors = experiment: Tumor assessments according to RECIST version 1.0; format: in vivo, human; details: of 38 evaluable; AZD7762 plus gemcitabine
pChk1ser345 and pH2AX = format: in vivo, human
[1] = test system: patients with advanced solid tumors; details: for Serious AE possibly related to AZD7762: one patient
Japanese patients = details: in combination with gemcitabine, bradycardia, hypertension, DLT troponin T increase; cited from earlier work
[2] = Single-dose pharmacokinetics of AZD7762 in plasma and urine
[3] = AZD7762 6 mg/gemcitabine 750 mg/m^2, 3x/cycle, n=6
[4] = AZD7762 6 mg/gemcitabine 1,000 mg/m^2, 2x/cycle, n=2
[5] = AZD7762 6 mg/gemcitabine 1,000 mg/m^2, 3x/cycle, n=1
[6] = AZD7762 9 mg/gemcitabine 1,000 mg/m^2, n=3
[7] = AZD7762 14 mg/gemcitabine 1,000 mg/m^2, n=6
[8] = AZD7762 21 mg/gemcitabine 1,000 mg/m^2, n=3
[9] = AZD7762 30 mg/gemcitabine 1,000 mg/m^2, n=7
[10] = AZD7762 32 mg/gemcitabine 1,000 mg/m^2, n=6
[11] = AZD7762 40 mg/gemcitabine 1,000 mg/m^2, n=8
[12] = all doses, overall, 11/42 patients
[13] = cycle 0 (AZD7762 alone), 6/42 patients
[14] = cycle 1 onwards, AZD7762 6 mg plus gemcitabine 1,000 mg/m^2, 3x/cycle, n=1

## NC(=O)Nc1cc(-c2cccc(F)c2)sc1C(=O)N[C@H]1CCCNC1 [AZD7762]
Advanced solid tumors
  Best response stable disease for ≥6–<12 weeks, patients: five
  Disease progression as best response, patients: 20 patients
  Stable disease for ≥12 weeks, patients: four
pChk1ser345 and pH2AX; 32 mg cohort, AZD7762 after gemcitabine
  Change in staining of pChk1ser345 and pH2AX: small increases in staining
pChk1ser345 and pH2AX; hair follicles from skin biopsies, pChk1ser345 and pH2AX
  H-scores for both biomarkers (out of 12): 0–3
pChk1ser345 and pH2AX; other dose cohorts
  Change in staining of pChk1ser345 and pH2AX: no increased staining
[1]; [3]
  Blood ALP increased, number of patients (%): 0 patients (%)
  Constipation, number of patients (%): 2 (33) patients (%)
  Decreased appetite, number of patients (%): 2 (33) patients (%)
  Dehydration, number of patients (%): 2 (33) patients (%)
  Diarrhea, number of patients (%): 0 patients (%)
  Neutropenia/leukopenia, number of patients (%): 0 patients (%)
  Thrombocytopenia, number of patients (%): 2 (33) patients (%)
  Vomiting, number of patients (%): 2 (33) patients (%)
[1]; [4]
  Decreased appetite, number of patients (%): 0 patients (%)
  Diarrhea, number of patients (%): 0 patients (%)
  Headache, number of patients (%): 0 patients (%)
  Nausea, number of patients (%): 0 patients (%)
  Neutropenia/leukopenia, number of patients (%): 0 patients (%)
  Thrombocytopenia, number of patients (%): 0 patients (%)
[1]; [5]
  ALT/AST increased, number of patients (%): 0 patients (%)
  Blood ALP increased, number of patients (%): 0 patients (%)
  Constipation, number of patients (%): 0 patients (%)
  Decreased appetite, number of patients (%): 0 patients (%)
  Dehydration, number of patients (%): 0 patients (%)
  Headache, number of patients (%): 0 patients (%)
  Thrombocytopenia, number of patients (%): 0 patients (%)
[1]; [6]
  ALT/AST increased, number of patients (%): 0 patients (%)
  Anemia/Hb decreased, number of patients (%): 1 (33) patients (%)
  Blood ALP increased, number of patients (%): 0 patients (%)
  Constipation, number of patients (%): 1 (33) patients (%)
  Decreased appetite, number of patients (%): 0 patients (%)
  Dehydration, number of patients (%): 1 (33) patients (%)
  Diarrhea, number of patients (%): 1 (33) patients (%)
  Fatigue, number of patients (%): 1 (33) patients (%)
  Nausea, number of patients (%): 1 (33) patients (%)
  Neutropenia/leukopenia, number of patients (%): 0 patients (%)
  Thrombocytopenia, number of patients (%): 1 (33) patients (%)
  Vomiting, number of patients (%): 0 patients (%)
[1]; [7]
  ALT/AST increased, number of patients (%): 0 patients (%)
  Anemia/Hb decreased, number of patients (%): 0 patients (%)
  Blood ALP increased, number of patients (%): 0 patients (%)
  Constipation, number of patients (%): 2 (33) patients (%)
  Dehydration, number of patients (%): 0 patients (%)
  Headache, number of patients (%): 0 patients (%)
  Neutropenia/leukopenia, number of patients (%): 2 (33) patients (%)
[1]; [8]
  ALT/AST increased, number of patients (%): 0 patients (%)
  Anemia/Hb decreased, number of patients (%): 0 patients (%)
  Blood ALP increased, number of patients (%): 0 patients (%)
  Constipation, number of patients (%): 0 patients (%)
  Dehydration, number of patients (%): 1 (33) patients (%)
  Diarrhea, number of patients (%): 0 patients (%)
  Headache, number of patients (%): 0 patients (%)
  Nausea, number of patients (%): 1 (33) patients (%)
  Neutropenia/leukopenia, number of patients (%): 0 patients (%)
  Pyrexia, number of patients (%): 0 patients (%)
  Thrombocytopenia, number of patients (%): 0 patients (%)
  Vomiting, number of patients (%): 1 (33) patients (%)
[1]; [9]
  Constipation, number of patients (%): 1 (14) patients (%)
  Decreased appetite, number of patients (%): 0 patients (%)
  Dehydration, number of patients (%): 0 patients (%)
  Fatigue, number of patients (%): 0 patients (%)
  Headache, number of patients (%): 0 patients (%)
  Nausea, number of patients (%): 1 (14) patients (%)
  Pyrexia, number of patients (%): 0 patients (%)
  Thrombocytopenia, number of patients (%): 0 patients (%)
[1]; [10]
  ALT/AST increased, number of patients (%): 0 patients (%)
  Blood ALP increased, number of patients (%): 0 patients (%)
  Constipation, number of patients (%): 0 patients (%)
  Decreased appetite, number of patients (%): 2 (33) patients (%)
  Diarrhea, number of patients (%): 2 (33) patients (%)
[1]; [11]
  Anemia/Hb decreased, number of patients (%): 2 (25) patients (%)
  Decreased appetite, number of patients (%): 0 patients (%)
  Dehydration, number of patients (%): 0 patients (%)
  Fatigue, number of patients (%): 2 (25) patients (%)
  Headache, number of patients (%): 0 patients (%)
  Nausea, number of patients (%): 2 (25) patients (%)
  Pyrexia, number of patients (%): 2 (25) patients (%)
  Thrombocytopenia, number of patients (%): 2 (25) patients (%)
[1]; [12]
  ALT/AST increase, patients with AE overall: 26%
  Nausea, patients with AE overall: 26%
  Pyrexia, patients with AE overall: 26%
[1]; all doses, overall, 12/42 patients
  Anemia/Hb decrease, patients with AE overall: 29%
[1]; all doses, overall, 15/42 patients
  Neutropenia/leukopenia, patients with AE overall: 36%
[1]; all doses, overall, 17/42 patients
  Fatigue, patients with AE overall: 41%
[1]; all doses, total n=42
  ALT/AST increased, number of patients (%): 11 (26) patients (%)
  Dehydration, number of patients (%): 6 (14) patients (%)
  Nausea, number of patients (%): 11 (26) patients (%)
  Pyrexia, number of patients (%): 11 (26) patients (%)
[1]; cycle 0 (AZD7762 alone), 5/42 patients
  Nausea, patients with AE: 12%
[1]; [13]
  Fatigue, patients with AE: 14%
  Vomiting, patients with AE: 14%
[1]; cycle 0 (AZD7762 alone), 8/42 patients
  AEs of CTCAE grade ≥3, patients: 19%
[1]; cycle 0, AZD7762 monotherapy 6 mg (6/750 cohort, 3x/cycle, n=6)
  Adverse events grade ≥3, patients: 2 (33) n (%)
[1]; cycle 0, AZD7762 monotherapy 6 mg (6/1,000 cohort, 2x/cycle, n=2)
  Adverse events grade ≥3, patients: 0 n (%)
[1]; cycle 0, AZD7762 monotherapy 6 mg (6/1,000 cohort, 3x/cycle, n=1)
  Adverse events grade ≥3, patients: 0 n (%)
[1]; cycle 0, AZD7762 monotherapy 9 mg, n=3
  Adverse events grade ≥3, patients: 0 n (%)
[1]; cycle 0, AZD7762 monotherapy 14 mg, n=6
  Adverse events grade ≥3, patients: 0 n (%)
[1]; cycle 0, AZD7762 monotherapy 21 mg, n=3
  Adverse events grade ≥3, patients: 0 n (%)
[1]; cycle 0, AZD7762 monotherapy 30 mg, n=7
  Adverse events grade ≥3, patients: 0 n (%)
[1]; cycle 0, AZD7762 monotherapy 32 mg, n=6
  Adverse events grade ≥3, patients: 3 (50) n (%)
[1]; cycle 0, AZD7762 monotherapy 32 mg, n=6, n=1 per term unless stated
  Grade ≥3 adverse events, term: Hyponatremia Peripheral neuropathy Troponin I increased
[1]; cycle 0, AZD7762 monotherapy 40 mg, n=8
  Adverse events grade ≥3, patients: 3 (38) n (%)
[1]; cycle 0, AZD7762 monotherapy 40 mg, n=8, n=1 per term unless stated
  Grade ≥3 adverse events, term: Device-related infection Myocardial ischemia Hyperglycemia
[1]; cycle 1 (AZD7762 in combination with gemcitabine), 22/42 patients
  AEs of CTCAE grade ≥3, patients: 52%
[1]; cycle 1, one patient at AZD7762 32 mg with gemcitabine 1,000 mg/m^2
  Non-cardiac dose-limiting toxicity: grade 3 nausea/vomiting for 2 days
[1]; cycle 1, one patient at AZD7762 40 mg with gemcitabine 1,000 mg/m^2
  Non-cardiac dose-limiting toxicity: grade 4 neutropenia complicated by ≥38.5 °C fever for 2 days
[1]; cycle 1 onwards, AZD7762 6 mg plus gemcitabine 750 mg/m^2, 3x/cycle, n=6
  Adverse events grade ≥3, patients: 5 (83) n (%)
[1]; cycle 1 onwards, AZD7762 6 mg plus gemcitabine 1,000 mg/m^2, 2x/cycle, n=2
  Adverse events grade ≥3, patients: 1 (50) n (%)
[1]; [14]
  Adverse events grade ≥3, patients: 1 (100) n (%)
  Grade ≥3 adverse events, term: Neutropenia (n = 2)
[1]; cycle 1 onwards, AZD7762 9 mg plus gemcitabine 1,000 mg/m^2, n=3
  Adverse events grade ≥3, patients: 1 (33) n (%)
[1]; cycle 1 onwards, AZD7762 9 mg plus gemcitabine 1,000 mg/m^2, n=3, n=1 per term
  Grade ≥3 adverse events, term: Thrombocytopenia
[1]; cycle 1 onwards, AZD7762 14 mg plus gemcitabine 1,000 mg/m^2, n=6
  Adverse events grade ≥3, patients: 2 (33) n (%)
[1]; cycle 1 onwards, AZD7762 21 mg plus gemcitabine 1,000 mg/m^2, n=3
  Adverse events grade ≥3, patients: 1 (33) n (%)
[1]; cycle 1 onwards, AZD7762 21 mg plus gemcitabine 1,000 mg/m^2, n=3, n=1 per term
  Grade ≥3 adverse events, term: Atrial thrombosis Febrile neutropenia
[1]; cycle 1 onwards, AZD7762 30 mg plus gemcitabine 1,000 mg/m^2, n=7
  Adverse events grade ≥3, patients: 4 (57) n (%)
[1]; cycle 1 onwards, AZD7762 32 mg plus gemcitabine 1,000 mg/m^2, n=6
  Adverse events grade ≥3, patients: 3 (50) n (%)
[1]; cycle 1 onwards, AZD7762 32 mg plus gemcitabine 1,000 mg/m^2, n=6, n=1 per term
  Grade ≥3 adverse events, term: Neutropenia Flank pain Nausea Vomiting
[1]; cycle 1 onwards, AZD7762 40 mg plus gemcitabine 1,000 mg/m^2, n=8
  Adverse events grade ≥3, patients: 4 (50) n (%)
[1]; cycle 1 onwards, AZD7762 plus gemcitabine, all doses, total n=42
  Adverse events grade ≥3, patients: 22 (52) n (%)
[1]; AZD7762 30 mg group, also judged causally related to gemcitabine
  Serious AE possibly related to AZD7762: grade 3 chest pain
[1]; AZD7762 40 mg group, also recorded as a DLT
  Serious AE possibly related to AZD7762: grade 3 myocardial ischemia
Japanese patients
  Dose escalation limit due to cardiac AEs: did not support dose escalation beyond 21 mg
[2]; 30 mg dose
  Peak plasma concentration: 291 ng/mL
[2]; first 48 h post-dosing, across all dose levels
  Unchanged drug excreted in the urine: 11–20%
[2]; over the dose range studied
  AZD7762 exposure (Cmax, C24 h, and AUC) versus dose: increased linearly; also recorded: increased in a dose-proportional manner
